Data published in patent US20150072988A1, “USE OF N-(4-((3-(2-AMINO-4-PYRIMIDINYL)-2-PYRIDINYL)OXY)PHENYL)-4-(4-METHYL-2-THIENYL)-1-PHTHALAZINAMINE IN COMBINATION WITH HISTONE DEACETYLASE INHIBITORS FOR TREATMENT OF CANCER” (THE JOHNS HOPKINS UNIVERSITY, priority 2012, published 2015).

system: phospho-histone H3; assay: Immunoblotting of phospho-histone H3 in prostate cells; assay type: cell-based; details: single agent treatment
Protocol: Prostate cancer cell lines (DU-145, LNCaP, PC3) were obtained from ATCC. Cells were grown in RPMI-1640 (Invitrogen) with 10% Fetal Bovine Serum (FBS) (Gemini) and maintained in a […] humidified incubator supplemented with 5% CO2. Sodium salt of VPA (Sigma-Aldrich) was prepared in RPMI at a 1M stock on the day of treatment of the cells. Vorinostat (SAHA) (AtonPharma) and AMG 900 (Amgen) were maintained in 10 mM DMSO stock solutions at −20° C. and diluted in RPMI upon use. For combination studies, compounds were administered concomitantly.
Western blotting was performed as described previously. Kachhap S K, Rosmus N, et al. “Downregulation of homologous recombination repair genes by HDAC inhibition in prostate cancer is mediated through the E2F1 transcription factor”, PLoS One 2010;5:e11208. Loading volumes equalized to 20 μg of total protein were used. Primary antibodies were diluted 1:1000 in blocking solution with the exceptions of vinculin and phosphorylated aurora A-C, which were diluted 1:4000 and 1:500, respectively. Conjugated secondary antibodies were diluted 1:4000 in blocking solution. For blocking solution 5% milk in TBST (100 mM Tris-HCl ph 7.4, 0.1% Tween20, 150 mM NaCl in H2O) was used for p21, cyclin B1, vinculin, cleaved PARP and all secondary antibodies; 5% BSA in TBST was used for the primary antibodies phosphorylated aurora, and phosphorylated and total H3. Blots were developed on film and scanned into a computer at 300 dots per inch (dpi). Densitometric analyses were performed using ImageJ (Research Services Branch, National Institute of Mental Health).

| Compound | expression of phospho-histone H3 (pH3) |
| --- | --- |
| Cc1csc(-c2nnc(Nc3ccc(Oc4ncccc4-c4ccnc(N)n4)cc3)c3ccccc23)c1 [AMG 900, N-(4-((3-(2-amino-4-pyrimidinyl)-2-pyridinyl)oxy)phenyl)-4-(4-methyl-2-thienyl)-1-phthalazinamine] | decreased |
| O=C(CCCCCCC(=O)Nc1ccccc1)NO [vorinostat] | decreased |
| CCCC(CCC)C(=O)O [valproic acid] | decreased |
